Columns and labels:
[1] = tested on: normal male cynomolgus monkeys; experiment: Tear film break-up time (TBUT) after single ocular instillation, Tests 1 and 2; settings: for Extension of TBUT: 1% (w/v) ophthalmic solution, single ocular instillation, FIG. 2
Method: TBUT measurement tests were conducted for 10 normal male cynomolgus monkeys by partial crossover design of 5 monkeys per group. The test animals were given general anesthesia by intramuscular injection with ketamine hydrochloride (Ketalar for intramuscular injection 500 mg (registered trademark), Daiichi Sankyo Company, Limited.), and then were let their eyes closed. Then, TBUT was measured before and at 15, 30, and 60 minutes after ocular instillation of a vehicle or each ophthalmic solution (20 μL/eye) to the right eye. Specifically, 1% fluorescein solution (2 μL/eye) was instilled, and the time right after opening of the eyelids until breaking of the fluorescein layer (tear film) on the cornea was measured three times under a slit lamp, followed by calculation of the average. (N=5 eyes)
TBUT was measured in a similar manner to the method of Test 1. (N=4 or 5 eyes)

[2] = tested on: dry-eye model SD rat with exorbital lacrimal gland removed; experiment: Quantity of tears by Schirmer strip in dry-eye model, Tests 3 and 4; format: in vivo; settings: for Incremental difference in Schirmer's test at 0.5 hours after ocular instillation / Incremental difference in Schirmer's test at 8 hours after ocular instillation: 5 μL/eye, difference from vehicle-instilled group
Method: A somnopentyl injection five-fold diluted with physiological saline was intraperitoneally administered to a normal male SD (Sprague-Dawley) rat by 2.5 mL/kg, and the rat was given general anesthesia, followed by keeping the anesthetized state by inhalation of about 1 to 3% isoflurane. Then, the skin on each check was incised to remove the exorbital lacrimal gland, followed by suturation with a Michel suture clamp. In this test, an individual wherein reduction of tears was confirmed after 13 weeks from the removal of exorbital lacrimal gland was included as the experimental animal.
Half an hour after treatment of general anesthesia, Schirmer strip (1 mm×17 mm) was inserted to conjunctival sac of the lower eyelid of a rat, and then after 1 minute of the insertion, the wet part of the Schirmer strip was measured in increments of 0.5 mm. (N=14 or 16 eyes)
The quantity of tears was measured in a similar manner to Test 3. (N=10 eyes)
The following Tables 1 and 2 show incremental differences (mm/min) in Schirmer's test between the vehicle-instilled group and the ophthalmic-solution-instilled groups at 0.5 and 8 hours, respectively, after ocular instillation according to the results of Test 3 and Test 4. The symbol “-” in Tables 1 and 2 means not-performed.

[3] = tested on: normal male cynomolgus monkeys; experiment: Intraocular pressure test, twice daily repeated instillation, Test 5; format: in vivo, cynomolgus monkey; settings: 20 μL/eye twice daily, Day 1, 7 and 14, FIG. 4
Method: Specifically, one drop of 0.4% oxybuprocaine hydrochloride ophthalmic solution (trade name: Benoxil (registered trademark) ophthalmic solution 0.4%) was instilled to the right eye so as to provide surface anesthesia, and then the intraocular pressure was measured three times with Mentor tonometer (applanation), followed by calculation of the average. (N=6 eyes)

[4] = tested on: dry-eye model rat whose exorbital lacrimal gland is excised; experiment: Tear film break-up time in dry-eye model rat, Test 6; format: in vivo; settings: concentration of 0.00001% or more, 5 μL/eye, 0.5 and 2 hours after ocular instillation; FIG. 5
Text: A male SD rat was given general anesthesia, the skin on each […] cheek was incised under the anesthetized state, and then the exorbital lacrimal gland was excised to prepare a dry-eye model rat whose exorbital lacrimal gland is excised.
Untreated normal rats were assigned to an untreated group, and dry-eye model rats whose exorbital lacrimal gland is excised were assigned to a vehicle group and each ophthalmic solution group, each group consisting of 6 rats. For each group, TBUT measurement tests were conducted.

| SMILES | Extension of TBUT [1] | Incremental difference in Schirmer's test at 0.5 hours after ocular instillation ([2]; 0.001% ophthalmic solution) | Incremental difference in Schirmer's test at 8 hours after ocular instillation ([2]; 0.001% ophthalmic solution, 8 hours) | Incremental difference in Schirmer's test at 0.5 hours after ocular instillation ([2]; 0.01% ophthalmic solution) | Incremental difference in Schirmer's test at 8 hours after ocular instillation ([2]; 0.01% ophthalmic solution, 8 hours) | Incremental difference in Schirmer's test at 0.5 hours after ocular instillation ([2]; 0.1% ophthalmic solution) | Incremental difference in Schirmer's test at 8 hours after ocular instillation ([2]; 0.1% ophthalmic solution, 8 hours) | Incremental difference in Schirmer's test at 0.5 hours after ocular instillation ([2]; 1% ophthalmic solution) | Incremental difference in Schirmer's test at 8 hours after ocular instillation ([2]; 1% ophthalmic solution, 8 hours) | Effect on intraocular pressure ([3]; 0.01% ophthalmic solution) | Effect on intraocular pressure ([3]; 0.1% ophthalmic solution) | TBUT-extending effect ([1]; 0.0001, 0.001, 0.01% (w/v), single ocular instillation 20 μL/eye, 15, 30, 60 minutes, FIG. 1) | TBUT-extending effect [4] | Lacrimal secretion at 8 hours after ocular instillation ([2]; 0.0001 to 0.01% instilled groups, 8 hours, FIG. 3) | Tear volumes at 16 hours after ocular instillation ([2]; 0.001 and 0.01% instilled groups, 16 hours, FIG. 3) | Lacrimal secretion ([2]; olodaterol-instilled groups 0.00001 to 0.01%, FIG. 3) |
| --- | --- | --- | --- | --- | --- | --- | --- | --- | --- | --- | --- | --- | --- | --- | --- | --- |
| CC(C)(C)NCC(O)c1cc(Cl)c(N)c(Cl)c1 (centres unmarked) [clenbuterol] | not confirmed | – | – | – | – | – | – | – | – | – | – | – | – | – | – | – |
| CC(Cc1ccc(O)cc1)NCC(O)c1cc(O)cc(O)c1 (centres unmarked) [fenoterol] | not confirmed | 1.8 mm/min | 0.0 mm/min | 4.8 mm/min | 0.2 mm/min | 6.1 mm/min | 0.9 mm/min | 3.6 mm/min | 1.1 mm/min | – | – | – | – | – | – | – |
| COc1ccc(CC(C)(C)NC[C@H](O)c2cc(O)cc3c2OCC(=O)N3)cc1 [olodaterol, 6-hydroxy-8-((1R)-1-hydroxy-2-{[2-(4-methoxyphenyl)-1,1-dimethylethyl]amino}&shy;ethyl)-2H-1,4-benzoxazin-3-(4H)-one] | – | – | – | – | – | – | – | – | – | did not show increase and/or decrease the intraocular pressure | did not show increase and/or decrease the intraocular pressure | confirmed in a concentration-dependent manner | TBUT-extending effect was confirmed | highly enhanced | increase of tear volumes was observed | lacrimal secretion was enhanced |

Reference: patent US20240374607A1, “MEDICAMENT FOR PREVENTING AND/OR TREATING DRY EYE” (Santen Pharmaceutical Co., Ltd., priority 2021, published 2024)
